Laboratory results: patent US9650395B2, “Antibacterial compounds and methods for use” (PTC Therapeutics, Inc., priority 2011, dated 2017)
Converted amounts (≈) assume the structure as drawn.

Key:
[1] = test system: Gram-positive Staphylococcus aureus (S. aureus) 29213; assay: Antibacterial activity, microbroth dilution MIC, S. aureus 29213; format: cell-based; conditions: Staphylococcus aureus; S. aureus 29213, microbroth dilution; read-out: MIC, 29213
[2] = test system: control Gram-negative E. coli 25922 strain; assay: Antibacterial activity, microbroth dilution MIC, E. coli 25922; format: cell-based, Escherichia coli; conditions: Escherichia coli; E. coli 25922, microbroth dilution; read-out: MIC, 25922
[3] = test system: resistant K. pneumoniae MXX1232 (MDR clinical isolate); assay: Antibacterial activity, MIC, resistant K. pneumoniae MXX1232; format: cell-based, Klebsiella pneumoniae; conditions: Klebsiella pneumoniae; resistant K. pneumoniae MMX1232, MDR clinical isolate; read-out: MIC MMX1232
[4] = test system: quinolone resistant E. coli LZ3111; assay: Antibacterial activity, MIC, quinolone resistant E. coli LZ3111; format: cell-based, Escherichia coli; conditions: Escherichia coli, read-out: MIC, LZ3111
Excerpt: (§1) The antibacterial activity from a microbroth dilution method may be presented as the minimum inhibitory concentration (MIC in […]). The MIC value is the lowest concentration of a drug which prevents macroscopically visible bacterial growth under test conditions.
Mutations in these regions are known to confer a high level resistance to the quinolone class of antibiotics.

[5] = test system: Pseudomonas aeruginosa (P. aeruginosa) 27853; assay: Antibacterial activity, MIC, P. aeruginosa 27853; format: cell-based; conditions: Pseudomonas aeruginosa, P. aeruginosa 27853; read-out: MIC 27853
Excerpt: as §1
Antibacterial activity of test compounds against the Gram-negative bacterium Pseudomonas aeruginosa (P. aeruginosa) 27853 is shown in Table 5.

[6] = test system: resistant A. baumannii MXX2240 (MDR clinical isolate); assay: Antibacterial activity, MIC, resistant A. baumannii MXX2240; format: cell-based, Acinetobacter baumannii; conditions: Acinetobacter baumannii, resistant A. baumannii MMX2240, MDR clinical isolate; read-out: MIC MMX2240
[7] = test system: Acinetobacter baumannii (A. baumannii) BAA747; assay: Antibacterial activity, MIC, A. baumannii BAA747; format: cell-based; conditions: Acinetobacter baumannii; A. baumannii BAA747; read-out: MIC BAA747
[8] = test system: super sensitive Gram-negative Escherichia coli (E. coli) BAS849; assay: Antibacterial activity, microbroth dilution MIC, E. coli BAS849; format: cell-based; conditions: Escherichia coli; E. coli BAS849, microbroth dilution; read-out: MIC, BAS849
[9] = test system: Klebsiella pneumoniae (K. pneumoniae) 35657; assay: Antibacterial activity, MIC, K. pneumoniae 35657; format: cell-based; conditions: Klebsiella pneumoniae

Row | SMILES | MIC [1] | MIC [2] | MIC [3] | MIC [4] | MIC [5] | MIC [6] | MIC [7] | MIC [8] | MIC [9]
1 | CCc1c(-c2ccc(N3CC4(CCCN4)C3)cc2)[nH]c(=O)c(C(=O)O)c1O [Cpd 323, 6-(4-(2,5-diazaspiro[3.4]octan-2-yl)phenyl)-5-ethyl-4-hydroxy-2-oxo-1,2-dihydropyridine-3-carboxylic acid] | 12.5 to 150 µg/mL (≈ 33.8 to 406 µM) | 3.5 to 12.5 µg/mL (≈ 9.47 to 33.8 µM) | 12.5 to 150 µg/mL (≈ 33.8 to 406 µM) | 3.5 to 12.5 µg/mL (≈ 9.47 to 33.8 µM) | 12.5 to 150 µg/mL (≈ 33.8 to 406 µM) | 12.5 to 150 µg/mL (≈ 33.8 to 406 µM) | 12.5 to 150 µg/mL (≈ 33.8 to 406 µM) | 1 to 3.5 µg/mL (≈ 2.71 to 9.47 µM) | 12.5 to 150 µg/mL (≈ 33.8 to 406 µM)
2 | CCc1c(-c2ccc(N3CC4(CNC4)C3)cc2)[nH]c(=O)c(C(=O)O)c1O [Cpd 324, 6-(4-(2,6-diazaspiro[3.3]heptan-2-yl)phenyl)-5-ethyl-4-hydroxy-2-oxo-1,2-dihydropyridine-3-carboxylic acid] | 12.5 to 150 µg/mL (≈ 35.2 to 422 µM) | 12.5 to 150 µg/mL (≈ 35.2 to 422 µM) | 12.5 to 150 µg/mL (≈ 35.2 to 422 µM) | 12.5 to 150 µg/mL (≈ 35.2 to 422 µM) | 12.5 to 150 µg/mL (≈ 35.2 to 422 µM) | 12.5 to 150 µg/mL (≈ 35.2 to 422 µM) | 12.5 to 150 µg/mL (≈ 35.2 to 422 µM) | 3.5 to 12.5 µg/mL (≈ 9.85 to 35.2 µM) | 12.5 to 150 µg/mL (≈ 35.2 to 422 µM)
3 | CCNc1ccc(-c2[nH]c(=O)c(C(=O)O)c(O)c2CC)cc1 [Cpd 325, 5-ethyl-6-(4-(ethylamino)phenyl)-4-hydroxy-2-oxo-1,2-dihydropyridine-3-carboxylic acid] | 12.5 to 150 µg/mL (≈ 41.3 to 496 µM) | 3.5 to 12.5 µg/mL (≈ 11.6 to 41.3 µM) | 12.5 to 150 µg/mL (≈ 41.3 to 496 µM) | 12.5 to 150 µg/mL (≈ 41.3 to 496 µM) | 12.5 to 150 µg/mL (≈ 41.3 to 496 µM) | 12.5 to 150 µg/mL (≈ 41.3 to 496 µM) | 3.5 to 12.5 µg/mL (≈ 11.6 to 41.3 µM) | < 1 µg/mL | 3.5 to 12.5 µg/mL (≈ 11.6 to 41.3 µM)
4 | CCc1c(-c2ccc(NC)cc2)[nH]c(=O)c(C(=O)O)c1O [Cpd 326, 5-ethyl-4-hydroxy-6-(4-(methylamino)phenyl)-2-oxo-1,2-dihydropyridine-3-carboxylic acid] | 12.5 to 150 µg/mL (≈ 43.4 to 520 µM) | 3.5 to 12.5 µg/mL (≈ 12.1 to 43.4 µM) | 12.5 to 150 µg/mL (≈ 43.4 to 520 µM) | 12.5 to 150 µg/mL (≈ 43.4 to 520 µM) | 12.5 to 150 µg/mL (≈ 43.4 to 520 µM) | 3.5 to 12.5 µg/mL (≈ 12.1 to 43.4 µM) | 1 to 3.5 µg/mL (≈ 3.47 to 12.1 µM) | < 1 µg/mL | 3.5 to 12.5 µg/mL (≈ 12.1 to 43.4 µM)
5 | CN(C)c1ccc(-c2[nH]c(=O)c(C(=O)O)c(O)c2CC=O)cc1 [Cpd 327, 6-(4-(dimethylamino)phenyl)-4-hydroxy-2-oxo-5-(2-oxoethyl)-1,2-dihydropyridine-3-carboxylic acid] | 12.5 to 150 µg/mL (≈ 39.5 to 474 µM) | 12.5 to 150 µg/mL (≈ 39.5 to 474 µM) | 12.5 to 150 µg/mL (≈ 39.5 to 474 µM) | 12.5 to 150 µg/mL (≈ 39.5 to 474 µM) | 12.5 to 150 µg/mL (≈ 39.5 to 474 µM) | 12.5 to 150 µg/mL (≈ 39.5 to 474 µM) | 12.5 to 150 µg/mL (≈ 39.5 to 474 µM) | 3.5 to 12.5 µg/mL (≈ 11.1 to 39.5 µM) | 12.5 to 150 µg/mL (≈ 39.5 to 474 µM)
6 | CN(C)c1ccc(-c2[nH]c(=O)c(C(=O)O)c(O)c2CCO)cc1 [Cpd 328, 6-(4-(dimethylamino)phenyl)-4-hydroxy-5-(2-hydroxyethyl)-2-oxo-1,2-dihydropyridine-3-carboxylic acid] | 12.5 to 150 µg/mL (≈ 39.3 to 471 µM) | 3.5 to 12.5 µg/mL (≈ 11 to 39.3 µM) | 12.5 to 150 µg/mL (≈ 39.3 to 471 µM) | 3.5 to 12.5 µg/mL (≈ 11 to 39.3 µM) | 12.5 to 150 µg/mL (≈ 39.3 to 471 µM) | 3.5 to 12.5 µg/mL (≈ 11 to 39.3 µM) | 12.5 to 150 µg/mL (≈ 39.3 to 471 µM) | < 1 µg/mL | 3.5 to 12.5 µg/mL (≈ 11 to 39.3 µM)
7 | CN(C)c1ccc(-c2[nH]c(=O)c(C(=O)O)c(O)c2CC(O)CO)cc1 (stereo not drawn) [Cpd 329, 5-(2,3-dihydroxypropyl)-6-(4-(dimethylamino)phenyl)-4-hydroxy-2-oxo-1,2-dihydropyridine-3-carboxylic acid] | 12.5 to 150 µg/mL (≈ 35.9 to 431 µM) | 12.5 to 150 µg/mL (≈ 35.9 to 431 µM) | 12.5 to 150 µg/mL (≈ 35.9 to 431 µM) | 3.5 to 12.5 µg/mL (≈ 10 to 35.9 µM) | 12.5 to 150 µg/mL (≈ 35.9 to 431 µM) | 12.5 to 150 µg/mL (≈ 35.9 to 431 µM) | 12.5 to 150 µg/mL (≈ 35.9 to 431 µM) | 12.5 to 150 µg/mL (≈ 35.9 to 431 µM) | 12.5 to 150 µg/mL (≈ 35.9 to 431 µM)
8 | C/C=C/c1c(-c2ccc(N(C)C)cc2)[nH]c(=O)c(C(=O)O)c1O [Cpd 330, (E)-6-(4-(dimethylamino)phenyl)-4-hydroxy-2-oxo-5-(prop-1-enyl)-1,2-dihydropyridine-3-carboxylic acid] | 12.5 to 150 µg/mL (≈ 39.8 to 477 µM) | 12.5 to 150 µg/mL (≈ 39.8 to 477 µM) | 12.5 to 150 µg/mL (≈ 39.8 to 477 µM) | 12.5 to 150 µg/mL (≈ 39.8 to 477 µM) | 12.5 to 150 µg/mL (≈ 39.8 to 477 µM) | 12.5 to 150 µg/mL (≈ 39.8 to 477 µM) | 12.5 to 150 µg/mL (≈ 39.8 to 477 µM) | 1 to 3.5 µg/mL (≈ 3.18 to 11.1 µM) | 12.5 to 150 µg/mL (≈ 39.8 to 477 µM)
